Data on 10 compounds can be found in PubChem BioAssay (NCI).

Molecules are shown by their SMILES.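 Cells were grown in 96-well plates and exposed to each compound for 48 hours at five concentrations; endpoints were interpolated linearly between bracketing concentrations, or set to the highest concentration if not reached. GI50: concentration for 50% inhibition of growth. TGI: total growth inhibition.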

Test in all cases: NCI tumour cell line growth inhibition, 48 h
Test [1] has as its system NCI-H460 lung.
Test [2] has as its system SK-OV-3 ovarian.
Test [3] concerns OVCAR-3 ovarian.
Test [4] relates to LOX IMVI melanoma.
In test [5] the test system is ACHN renal.
Test [6] deals with SF-539 CNS.
Test [7] deals with M14 melanoma.
In test [8] the test system is 786-0 renal.
Test [9] has as its system UACC-257 melanoma.
In test [10] the test system is OVCAR-5 ovarian.

`CN1C2(c3ccccc3)c3c(-c4ccccc4)sc(-c4ccccc4)c3C1(c1ccccc1)C1C(=O)N(c3ccccc3)C(=O)C12` (stereo not given): the TGI in test [1], in test [2], in test [3], in test [4], in [5] and in test [6] was more than 100 µM in each case. For the same compound, the TGI in [7], in test [8], in test [9] and in test [10] was more than 100 µM each time.
As for `Cc1cc(N(CCC#N)S(C)(=O)=O)ccc1C=O`, the TGI in test [1], in test [2], in [3], in [4], in test [5] and in test [6] was more than 100 µM each time. Also, the TGI in test [7], in test [8], in test [9] and in test [10] was more than 100 µM in each case.
Turning to `CC(=O)c1ccc(NC(=O)CSc2nnc(-c3cc(-c4ccc(C)cc4)nc4ccccc34)o2)cc1`, the GI50 was 2.36 µM in [1]; 2.64 µM in test [2]; 3.22 µM in test [3]; 2.64 µM in test [4]; 1.8 µM in test [6]; 5.65 µM in test [7]. Moreover, the GI50 in test [8] is 1.61 µM; in test [9], more than 100 µM; in [10], 6.01 µM. Besides, the TGI in test [1] was 6.04 µM; in test [2], 8.22 µM; in test [3], more than 100 µM; in [4], 9.09 µM; in [6] it was 3.92 µM; in [7], more than 100 µM. Also, the TGI was 3.51 µM in test [8], more than 100 µM in test [9] and more than 100 µM in test [10].
Consider `Cn1c2c(c3ccccc31)C1CCCCC1C1C(=O)NC(=O)C21` (stereo not given), for which the TGI in test [1] is more than 100 µM; in test [2] it was more than 100 µM; in test [3], 58 µM; in [4], more than 100 µM; in [5], more than 100 µM; in [6], more than 100 µM. For the same compound, the TGI in test [7], in test [8] and in test [10] was more than 100 µM throughout.
In the case of `COc1ccc2oc3c4c2c1CCC4CCC3=O` (stereo not given), the TGI in [1], in test [2], in [3], in test [4], in test [5] and in test [6] was more than 100 µM throughout. The TGI is more than 100 µM in [7], more than 100 µM in test [8], 31.2 µM in test [9] and more than 100 µM in [10].
For `COc1cc(C(=O)/C=C/c2cc(C(=O)c3cc(OC)c(OC)c(OC)c3)ccc2OC)ccc1N`, the GI50 in [1] was 2.13 µM; in test [2], 3.16 µM; in test [3], 0.448 µM; in [4] it was 0.74 µM; in test [5], 1.08 µM; in [6], 1.53 µM. Further, the results for the GI50 in [7], in test [8] and in [9] were 0.752 µM, 1.54 µM and 1.32 µM, respectively. The TGI in [1] was 7.61 µM; in test [2] it was 16.1 µM; in test [3] it was 4.17 µM; in test [4], 2.03 µM; in test [5], 4.49 µM; in test [6], 3.98 µM. The TGI in [7] amounted to 3.06 µM; in [8], 4.08 µM; in test [9] it was 3.14 µM.
`CC(C)(C)NN=C1C(C)(C)C(=NNC(C)(C)C)C1(C)C`: the TGI in test [1], in [2], in test [3], in test [4], in test [5] and in test [6] was more than 100 µM in each case. Further, the TGI in [7], in test [8], in [9] and in test [10] was more than 100 µM each time.
`CCN(CC)c1cc(/C=C/c2ccc(OC)c(OC)c2)nc2cc(F)c(F)cc12`: the GI50 was 67.8 µM in test [1]; 1.98 µM in test [2]; 5.54 µM in test [3]; 7.24 µM in test [4]; 2.56 µM in test [5]; 10.4 µM in test [6]. Further, the GI50 in test [7] is 26.3 µM; in test [8], 1.98 µM; in test [9] it was 15.2 µM; in [10], 20.3 µM. The TGI in test [1] is more than 100 µM; in test [2], 4.54 µM; in test [3], 33.3 µM; in test [4] it was 37.7 µM; in [5], 9.76 µM; in test [6], 92.9 µM. Moreover, the TGI in test [7] was more than 100 µM; in [8] it was 4.77 µM; in [9], more than 100 µM; in [10], more than 100 µM.
In the case of `CCn1c2c(n(CC)c1=S)-c1c(n(CC)c(=S)n1CC)SSSS2`, the TGI in test [1] is more than 77.9 µM; in test [2], 98.9 µM; in test [3], 17.9 µM; in test [4] it was 23.2 µM; in [5], 16 µM; in [6], 28.2 µM. The TGI in test [7] was 18.1 µM; in test [8], 28.6 µM; in [9], 22.6 µM; in test [10], 27.8 µM.
With `CCC(C)n1cc(C)c2c(C(=O)NCc3c(C)cc(C)[nH]c3=O)cc(Br)cc21` (stereo not given), the GI50 in test [1] is 40.3 µM; in [2] it was more than 100 µM; in test [3], 44.5 µM; in [4], 32.8 µM; in test [5], 46.1 µM; in [6] it was more than 100 µM. Further, the GI50 is 35.2 µM in test [7], more than 100 µM in test [8], 32.8 µM in [9] and more than 100 µM in [10]. In addition, the TGI in [1], in [2], in test [3], in test [4], in test [5] and in test [6] was more than 100 µM each time. In addition, the TGI in test [7], in test [8], in test [9] and in test [10] was more than 100 µM throughout.
